Values of other authors, collected in patent US9056184B2, “Methods for renal denervation” (priority 2010, dated 2015).
pKd: −log10 of the molar value.

How the values were obtained:
[1] = target: tetrodotoxin-resistant voltage-gated sodium channel (TTX-r Na+ channel)
[2] = target: tetrodotoxin-sensitive voltage-gated sodium channel (TTX-s Na+ channel); details: read-out: binding affinity
[3] = in vivo
[4] = after initiation of therapy
CYP3A4 = details: in vivo

Compound: NC1=N[C@H](O)[C@H]2[C@H]3O[C@]4(O)O[C@@H]([C@@H](O)[C@@]2(N1)[C@@H]4O)[C@]3(O)CO [Tetrodotoxin]
- binding affinity [1]: low micromolar
- pKd [2]: 7.82 to 8.30

Compound: [Li] [lithium]
- toxic amounts [3]: > 1.5 mmol/L

Compound: NC(=O)N1c2ccccc2C=Cc2ccccc21 [carbamazepine, Carbamazepine]
- time to stable carbamazepine concentrations [4]: 2-3 weeks
- time for auto-induction to reach a plateau (CYP3A4): 5 to 7 days
